Test results: paper PMC2883571, “Quercetin Targets Cysteine String Protein (CSPα) and Impairs Synaptic Transmission” (PLoS ONE, 2010)

Columns and labels:
[1] = biological target: T1, purified recombinant rat CSPα (Rattus norvegicus, UniProt P60905); experiment: SDS-resistant dimerization of purified protein, SDS-PAGE; type: binding; conditions: 24 h incubation; concentration series
T1 construct: gene Dnajc5; purified recombinant soluble CSPα
T1 sequence (P60905 1-198): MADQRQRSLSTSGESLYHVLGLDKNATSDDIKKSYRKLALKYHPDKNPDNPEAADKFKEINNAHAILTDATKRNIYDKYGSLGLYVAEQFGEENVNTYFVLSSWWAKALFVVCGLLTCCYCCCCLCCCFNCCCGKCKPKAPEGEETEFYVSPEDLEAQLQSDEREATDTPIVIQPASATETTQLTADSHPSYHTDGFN

[2] = biological target: T2, c-myc-CSPα (Rattus norvegicus, UniProt P60905); experiment: CSPα dimer in transfected CAD cells, anti-myc Western blot; type: cell-based; conditions: 24 h treatment of intact cells, cysteine string region
T2 construct: gene Dnajc5; full-length CSPα1-198, c-myc tag kept; transient expression in CAD mouse neuroblastoma cells; palmitoylated monomer ~34 kDa, dimer ~72 kDa
T2 sequence (P60905 1-198): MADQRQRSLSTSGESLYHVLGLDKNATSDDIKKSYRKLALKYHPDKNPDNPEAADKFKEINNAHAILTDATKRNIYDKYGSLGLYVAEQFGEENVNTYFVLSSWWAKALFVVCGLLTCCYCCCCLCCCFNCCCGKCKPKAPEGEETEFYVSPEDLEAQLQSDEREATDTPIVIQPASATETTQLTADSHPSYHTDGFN

[3] = biological target: the molecule itself; experiment: SDS-resistant dimer on SDS-PAGE with Western blot; lysates of transiently transfected CAD cells, control or treated 24 h with quercetin (up to 200 µM), EGCG or other agents; 30-40 µg protein in SDS sample buffer at 37°C or 80°C; dimer at ∼72 kDa

Molecule | CSPα dimer formation [1] | fold CSPα dimer vs control at 100 μM [2] [fold] | fold dimer with 100 µM quercetin at 24 hrs over control [3] [fold]
O=c1c(O)c(-c2ccc(O)c(O)c2)oc2cc(O)cc(O)c12 [quercetin, 3,3′,4′,5,7-pentapentahydroxyflavone] | quercetin triggered dimerization of recombinant CSPα in a concentration dependent manner | 4 | 
c-myc tagged rat CSPα_(1–198) (cysteine string protein) (natural protein, UniProt P60905 1-198, looked up, both unmodified and palmitoylated (extensive fatty acylation) species seen, cysteine string protein alpha (CSPα), rat, residues 1-198; also called c-myc-CSPα; source: CAD mouse neuroblastoma cells, transiently transfected, in lysate) MADQRQRSLSTSGESLYHVLGLDKNATSDDIKKSYRKLALKYHPDKNPDNPEAADKFKEINNAHAILTDATKRNIYDKYGSLGLYVAEQFGEENVNTYFVLSSWWAKALFVVCGLLTCCYCCCCLCCCFNCCCGKCKPKAPEGEETEFYVSPEDLEAQLQSDEREATDTPIVIQPASATETTQLTADSHPSYHTDGFN |  |  | 4
